Experimental findings from patent US20200369626A1 (Washington University, priority 2019, published 2020) are described below.

The term IC50 denotes the concentration that inhibits the measured activity by half. Usually melting point stands for the temperature of the solid-liquid transition.

Molecules are shown by their SMILES. Read-outs that look alike come from different tables or passages of the source.

The target in one series is T1, S1PR1 (Homo sapiens, UniProt P21453).
T1 construct: purchased
In words: competitive [^32P]S1P binding assay on cell membranes, S1PR1. Particulars: Table 5. How it is done: (§1) The test compounds were dissolved in DMSO and diluted into test samples with increasing concentrations with assay buffer. Commercial cell membranes expressing recombinant human S1PR were diluted with assay buffer to make a 20-40 μg/mL of solution. […] The plate was incubated for 60 min at room temperature with shaking and terminated by collecting the membranes onto 96-well glass fiber (GF/B) filtration plates (Millipore, Billerica, Mass.). Each filter was washed with 200 μL of assay buffer for a total of five washes. The filter bound radionuclide was measured by a Beckman LS 3801 scintillation counter using Cherenkov counting. The IC50 values were fitted from GraphPad Prism 6 using one site Nonlinear Regression.

The next series has as its target T2, S1PR2 (Homo sapiens, UniProt O95136).
T2 construct: purchased
In words: competitive [^32P]S1P binding assay on cell membranes, S1PR2.

The target in another series is T3, S1PR3 (Homo sapiens, UniProt Q99500).
T3 construct: purchased
The experiment in a line: competitive [^32P]S1P binding assay on cell membranes, S1PR3. Particulars: Table 5. Here is the method:
as §1

T1 sequence (P21453 whole entry): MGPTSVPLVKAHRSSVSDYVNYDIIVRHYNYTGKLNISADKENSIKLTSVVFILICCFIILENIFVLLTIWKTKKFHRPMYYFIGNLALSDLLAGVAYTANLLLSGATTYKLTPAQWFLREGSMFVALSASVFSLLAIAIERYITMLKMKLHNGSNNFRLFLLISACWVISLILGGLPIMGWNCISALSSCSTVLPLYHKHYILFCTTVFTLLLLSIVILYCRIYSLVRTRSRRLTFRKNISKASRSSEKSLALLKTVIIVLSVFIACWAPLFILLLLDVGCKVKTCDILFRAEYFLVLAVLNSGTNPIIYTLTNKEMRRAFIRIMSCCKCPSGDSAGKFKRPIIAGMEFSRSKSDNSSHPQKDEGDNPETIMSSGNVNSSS
T2 sequence (O95136 whole entry): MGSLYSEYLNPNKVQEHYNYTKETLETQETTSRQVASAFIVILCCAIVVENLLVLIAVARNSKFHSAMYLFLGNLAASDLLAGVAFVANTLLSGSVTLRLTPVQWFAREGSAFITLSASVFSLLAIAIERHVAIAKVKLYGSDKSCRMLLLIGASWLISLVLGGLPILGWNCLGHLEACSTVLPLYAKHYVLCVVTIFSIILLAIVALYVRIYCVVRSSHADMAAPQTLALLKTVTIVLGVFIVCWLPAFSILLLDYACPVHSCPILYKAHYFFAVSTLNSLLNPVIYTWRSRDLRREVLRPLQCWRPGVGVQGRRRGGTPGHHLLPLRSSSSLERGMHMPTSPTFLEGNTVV
T3 sequence (Q99500 whole entry): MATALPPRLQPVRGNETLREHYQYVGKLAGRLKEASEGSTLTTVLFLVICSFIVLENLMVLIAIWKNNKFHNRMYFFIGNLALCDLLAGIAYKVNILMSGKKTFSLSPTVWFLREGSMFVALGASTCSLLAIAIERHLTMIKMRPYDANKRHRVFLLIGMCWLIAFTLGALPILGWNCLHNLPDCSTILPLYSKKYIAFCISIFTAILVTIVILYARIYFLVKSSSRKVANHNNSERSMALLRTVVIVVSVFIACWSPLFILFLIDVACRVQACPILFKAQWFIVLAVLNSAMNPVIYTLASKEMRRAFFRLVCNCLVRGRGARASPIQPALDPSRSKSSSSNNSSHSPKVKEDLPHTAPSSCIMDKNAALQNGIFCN
Experimental for S1PR2: The test compounds were dissolved in DMSO and diluted into test samples with increasing concentrations with assay buffer. Commercial cell membranes expressing recombinant human S1PR were diluted with assay buffer to make a 20-40 μg/mL of solution. […] The plate was incubated for 60 min at room temperature with shaking and terminated by collecting the membranes onto 96-well glass fiber (GF/B) filtration plates (Millipore, Billerica, Mass.). Each filter was washed with 200 μL of assay buffer for a total of five washes. […] The IC50 values were fitted from GraphPad Prism 6 using one site Nonlinear Regression.

As for `CC(C)CC1(O)CCN(C(=O)Nc2cc(Oc3ccc(S(C)(=O)=O)cc3)cc(C(F)(F)F)c2)CC1` [TZ51-035], the half-inhibitory concentration (IC50) was more than 1 µM at S1PR1; 0.27 ± 0.072 µM at S1PR2 (Table 5, read-out: IC50 S1PR2); more than 1 µM on S1PR3.

`COc1ccc(NC(=O)Cn2c(=O)c3ccccc3n(CC(=O)Nc3cc(Cl)c(OC)cc3OC)c2=O)cc1` [TZ59-104, N-(5-Chloro-2,4-dimethoxyphenyl)-2-(3-(2-((4-methoxyphenyl)amino)-2-oxoethyl)-2,4-dioxo-3,4-dihydroquinazolin-1(2H)-yl)acetamide]: the IC50 is more than 1 µM at S1PR1; 0.0057 ± 0.0005 µM on S1PR2 (Table 5, read-out: IC50 S1PR2); more than 1 µM on S1PR3.

With `CC(C)CC1(O)CCN(C(=O)Nc2cc(Oc3ccc(OCCF)cc3)cc(Oc3ccc(S(C)(=O)=O)cc3)c2)CC1` [TZ57-033], the IC50 was more than 1 µM on S1PR1; 0.525 ± 0.119 µM at S1PR2 (Table 5, read-out: IC50 S1PR2); more than 1 µM on S1PR3.

For `CCC(CC)CC1(O)CCN(C(=O)Nc2cc(Oc3ccc(F)cc3)cc(Sc3ccc(S(C)(=O)=O)cc3)c2)CC1` [TZ57-032], the IC50 at S1PR1 and at S1PR3 was more than 1 µM in each case.

On to `CCC(CC)CC1(O)CCN(C(=O)Nc2cc(Oc3ccc(F)cc3)cc(Oc3ccc(OC)cc3)c2)CC1` [Compound 28a, 4-(2-Ethylbutyl)-N-(3-(4-fluorophenoxy)-5-(4-methoxyphenoxy)phenyl)-4-hydroxypiperidine-1-carboxamide], for which the melting point was in the range of 79 to 80 °C. Besides, the half-maximal inhibitory concentration (IC50) at S1PR2 ([^32P]S1P competition, read-out: IC50 value, S1PR2 binding) was found to be 0.189 µM.

In the case of `CC(C)CC1(O)CCN(C(=O)Nc2cc(Oc3ccc(F)cc3)cc(C(F)(F)F)c2)CC1` [TZ51-032], the concentration for half-maximal inhibition (IC50) is more than 1 µM at S1PR1; 0.165 ± 0.035 µM at S1PR2 (Table 5, read-out: IC50 S1PR2); more than 1 µM at S1PR3.

Regarding `CCC(CC)CC1(O)CCN(C(=O)Nc2cc(Oc3ccc(OCCF)cc3)cc(Oc3ccc(S(C)(=O)=O)cc3)c2)CC1` [TZ57-034], the concentration for half-maximal inhibition (IC50) at S1PR1 is more than 1 µM; at S1PR2 (Table 5, read-out: IC50 S1PR2) it was 0.418 ± 0.118 µM; on S1PR3, more than 1 µM.

As for `CCC(CC)CC1(O)CCN(C(=O)Nc2cc(Oc3ccc(F)cc3)cc(Oc3ccc(C(=O)NCCF)cc3)c2)CC1` [TZ57-028], the IC50 at S1PR1 and on S1PR3 was more than 1 µM throughout.

Regarding `CCC(CC)CC1(O)CCN(C(=O)Nc2cc(Oc3ccc(F)cc3)cc(Oc3ccc4c(c3)CCNC4=O)c2)CC1` [TZ57-090], the concentration for half-maximal inhibition (IC50) was more than 1 µM on S1PR1; 0.03 ± 0.004 µM at S1PR2 (Table 5, read-out: IC50 S1PR2); more than 1 µM at S1PR3.

`CCC(CC)CC1(O)CCN(C(=O)Nc2cc(Oc3ccc(F)cc3)cc(Oc3ccc4c(c3)CCN(C)C4=O)c2)CC1` [TZ57-089]: the IC50 at S1PR1 was more than 1 µM; at S1PR2 (Table 5, read-out: IC50 S1PR2), 0.073 ± 0.011 µM; on S1PR3, more than 1 µM.

In the case of `CC(C)CC1(O)CCN(C(=O)Nc2cc(Oc3ccc(F)cc3)cc(Sc3ccc(S(C)(=O)=O)cc3)c2)CC1` [TZ57-031], the IC50 on S1PR1 and at S1PR3 was more than 1 µM each time.

The compound `CC(C)CC1(O)CCN(C(=O)Nc2cc(Oc3ccc(F)cc3)cc(Oc3ccc(C(=O)NCCF)cc3)c2)CC1` [Compound 28f, N-(3-(4-((2-fluoroethyl)carbamoyl)phenoxy)-5-(4-fluorophenoxy)phenyl)-4-hydroxy-4-isobutylpiperidine-1-carboxamide] had a melting point of 81 to 83 °C.

In the case of `CC(C)CC1(O)CCN(C(=O)Nc2cc(Oc3ccc(C(N)=O)cc3)cc(C(F)(F)F)c2)CC1` [TZ51-096], the concentration for half-maximal inhibition (IC50) at S1PR2 (Table 5, read-out: IC50 S1PR2) was more than 1 µM.

As to `CC(C)CC1(O)CCN(C(=O)Nc2cc(Oc3ccc(S(C)(=O)=O)cc3)cc(Oc3ccc(F)nc3)c2)CC1` [TZ57-040], the IC50 on S1PR2 (Table 5, read-out: IC50 S1PR2) came to 0.211 ± 0.032 µM.

Turning to `CC(C)CC1(O)CCN(C(=O)Nc2cc(Oc3ccc(F)cc3)cc(Oc3ccc(C(=O)NCCF)cc3)c2)CC1` [TZ57-029], the half-maximal inhibitory concentration (IC50) is more than 1 µM at S1PR1; 0.195 ± 0.036 µM on S1PR2 (Table 5, read-out: IC50 S1PR2); more than 1 µM at S1PR3.

As to `CC(C)CC1(O)CN(C(=O)Nc2cc(Oc3ccc(F)cc3)cc(Oc3ccc(S(C)(=O)=O)cc3)c2)C1` [TZ57-119], the IC50 on S1PR2 (Table 5, read-out: IC50 S1PR2) is more than 1 µM.

Take `COc1ccccc1NC(=O)Cn1c(=O)c2ccccc2n(CC(=O)Nc2cc(Cl)ccc2OC)c1=O` [TZ62-008]: the IC50 on S1PR2 (Table 5, read-out: IC50 S1PR2) was found to be 0.0549 ± 0.006 µM.

Take `COc1ccc(C(=O)Cn2c(=O)n(CCCC(=O)N3CCCC3)c(=O)c3ccccc32)cc1Cl` [TZ62-051]: the 50% inhibitory concentration (IC50) at S1PR2 (Table 5, read-out: IC50 S1PR2) is more than 1 µM.

In the case of `CC(C)C(O)C1CCN(C(=O)Nc2cc(Oc3ccc(F)cc3)cc(Oc3ccc(S(C)(=O)=O)cc3)c2)CC1` (stereo not drawn) [TZ57-065], at S1PR2 (Table 5, read-out: IC50 S1PR2), the IC50 is more than 1 µM.

`COc1cccc(NC(=O)Cn2c(=O)c3ccccc3n(CC(=O)Nc3cc(Cl)c(OC)cc3OC)c2=O)c1` [TZ59-131, N-(5-Chloro-2,4-dimethoxyphenyl)-2-(3-(2-((3-methoxyphenyl)amino)-2-oxoethyl)-2,4-dioxo-3,4-dihydroquinazolin-1(2H)-yl)acetamide]: at S1PR2 (Table 5, read-out: IC50 S1PR2), the half-inhibitory concentration (IC50) was 0.0391 ± 0.007 µM.

On to `CCC(CC)CC1(O)CCN(C(=O)Nc2cc(Oc3ccc(F)cc3)cc(OC3CCN(C(C)=O)CC3)c2)CC1` [TZ57-080], for which the IC50 at S1PR2 (Table 5, read-out: IC50 S1PR2) was more than 1 µM.

For `COc1ccc(-n2c(=O)c3ccccc3n(CC(=O)Nc3cc(Cl)c(OC)cc3OC)c2=O)cc1` [TZ59-110], the 50% inhibitory concentration (IC50) at S1PR2 (Table 5, read-out: IC50 S1PR2) was more than 1 µM.

On to `COc1cc(OC)c(NC(=O)Cn2c(=O)n(CC(=O)Nc3cc(Cl)nc(Cl)c3)c(=O)c3ccccc32)cc1Cl` [TZ59-112, N-(5-Chloro-2,4-dimethoxyphenyl)-2-(3-(2-((2,6-dichloropyridin-4-yl)amino)-2-oxoethyl)-2,4-dioxo-3,4-dihydroquinazolin-1(2H)-yl)acetamide], for which the IC50 on S1PR2 (Table 5, read-out: IC50 S1PR2) was more than 1 µM.

As for `CS(=O)(=O)c1ccc(Oc2nc(NC(=O)N3CCc4ccccc4C3)nc(C(F)(F)F)n2)cc1` [TZ57-047], at S1PR2 (Table 5, read-out: IC50 S1PR2), the concentration for half-maximal inhibition (IC50) is more than 1 µM.

Take `CC(C)CC1(O)CCN(C(=O)Nc2cc(Oc3ccc(C(=O)N(C)C)cc3)cc(C(F)(F)F)c2)CC1` [TZ51-095]: the 50% inhibitory concentration (IC50) on S1PR2 (Table 5, read-out: IC50 S1PR2) is more than 1 µM.

As to `CNC(=O)c1ccc(Oc2cc(NC(=O)N3CCC(O)(CC(C)C)CC3)cc(C(F)(F)F)c2)cc1` [TZ51-024], the IC50 on S1PR1 was more than 1 µM; on S1PR2 (Table 5, read-out: IC50 S1PR2), 0.284 ± 0.027 µM; at S1PR3, more than 1 µM.

Turning to `CNC(=O)c1ccc(Oc2cc(NC(=O)N3CCC(O)CC3)cc(C(F)(F)F)c2)cc1` [TZ51-041], on S1PR2 (Table 5, read-out: IC50 S1PR2), the 50% inhibitory concentration (IC50) was more than 1 µM.

In the case of `CCC(CC)CC1(O)CCN(C(=O)Nc2cc(Oc3ccc(F)cc3)cc(-n3cccn3)c2)CC1` [TZ57-016], at S1PR2 (Table 5, read-out: IC50 S1PR2), the IC50 was more than 1 µM.

In the case of `CCOc1ccc(C(=O)Cn2c(=O)n(CC(=O)Nc3ccccc3OC)c(=O)c3ccccc32)cc1Cl` [TZ62-114], at S1PR2 (Table 5, read-out: IC50 S1PR2), the half-inhibitory concentration (IC50) is 0.0498 ± 0.0049 µM.

`CCC(CC)CC1(O)CCN(C(=O)Nc2cc(Oc3ccc(S(C)(=O)=O)cc3)cc(C(F)(F)F)c2)CC1` [TZ51-033]: the 50% inhibitory concentration (IC50) at S1PR1 is more than 1 µM; at S1PR2 (Table 5, read-out: IC50 S1PR2) it was 0.296 ± 0.032 µM; at S1PR3, more than 1 µM.

As to `COc1cc(OC)c(NC(=O)Cn2c(=O)n(CCN3CCOCC3)c(=O)c3ccccc32)cc1Cl` [TZ62-102], at S1PR2 (Table 5, read-out: IC50 S1PR2), the IC50 was more than 1 µM.

As for `CCC1(O)CCN(C(=O)Nc2cc(Oc3ccc(C(=O)NC)cc3)cc(C(F)(F)F)c2)CC1` [TZ51-046], the IC50 on S1PR2 (Table 5, read-out: IC50 S1PR2) was more than 1 µM.

Regarding `COc1ccc(C(=O)Cn2c(=O)n(CC(=O)Nc3ccccc3OC)c(=O)c3ccccc32)cc1` [TZ62-019], the IC50 on S1PR2 (Table 5, read-out: IC50 S1PR2) was more than 1 µM.

On to `COc1cc(OC)c(NC(=O)Cn2c(=O)n(CC(=O)NCCOCCOCCO)c(=O)c3ccccc32)cc1Cl` [TZ59-133, N-(5-Chloro-2,4-dimethoxyphenyl)-2-(3-(2-((2-(2-(2-hydroxyethoxy)ethoxy)ethyl)amino)-2-oxoethyl)-2,4-dioxo-3,4-dihydroquinazolin-1(2H)-yl)acetamide], for which the IC50 on S1PR2 (Table 5, read-out: IC50 S1PR2) was 0.204 ± 0.096 µM.

On S1PR2 (IC50 S1PR2, Table 5), `CNC(=O)c1ccc(Oc2cc(NC(=O)N3CCC(=O)CC3)cc(C(F)(F)F)c2)cc1` [TZ51-020] displayed a half-maximal inhibitory concentration (IC50) of more than 1 µM.

As for `CCC(CC)CC1(O)CCN(C(=O)Nc2cc(Oc3ccc(F)cc3)cc(C(F)(F)F)c2)CC1` [Compound 17c, 4-(2-Ethylbutyl)-N-(3-(4-fluorophenoxy)-5-(trifluoromethyl)phenyl)-4-hydroxypiperidine-1-carboxamide], the melting point was 108 to 111 °C. The IC50 at S1PR2 ([^32P]S1P competition, IC50 ± SD, second Table 1, read-out: S2PR2 IC50) worked out at 0.362 µM.

With `COc1ccc(Oc2cc(NC(=O)N3CCC(O)(C(C)C)CC3)cc(C(F)(F)F)c2)cc1` [TZ51-059], on S1PR2 (Table 5, read-out: IC50 S1PR2), the IC50 is more than 1 µM.

As for `CC(C)CC1(O)CCN(C(=O)Nc2cc(Oc3ccc(C(=O)O)cc3)cc(C(F)(F)F)c2)CC1` [TZ51-073], on S1PR2 (Table 5, read-out: IC50 S1PR2), the IC50 was more than 1 µM.

`CS(=O)(=O)c1ccc(Oc2cc(NC(=O)N3CC[C@@]4(O)CCCC[C@H]4C3)cc(Oc3ccc(F)cc3)c2)cc1` [TZ57-091]: the half-inhibitory concentration (IC50) at S1PR2 (Table 5, read-out: IC50 S1PR2) was more than 1 µM.

Take `CCC(CC)CC1(O)CCN(C(=O)Nc2cc(C(C)C)c3c(C)nn(C)c3n2)CC1` [TZ59-023]: the IC50 on S1PR2 (Table 5, read-out: IC50 S1PR2) was more than 1 µM.

For the compound `CCC(CC)CC1(O)CCN(C(=O)Nc2cc(Oc3ccc(C(=O)NC)cc3)cc(C(F)(F)F)c2)CC1` [TZ51-018], the half-maximal inhibitory concentration (IC50) at S1PR2 (Table 5, read-out: IC50 S1PR2) was more than 1 µM.
